Earlier results, collected in US7759312B2 (priority 2005, dated 2010).

Key:
IGF-1 = settings: acromegaly
[1] = patients with acromegaly
GH = settings: following a subcutaneous octreotide injection

L-cysteinamide, D-phenylalanyl-L-cysteiny-L-phenylalanyl-D-tryptophyl-L-lysyl-L-threonyl-N-[2-hydroxy-1-(hydroxymethyl)propyl]-,cyclic(2→7)-disulfide; [Octreotide, L-cysteinamide, D-phenylalanyl-L-cysteiny-L-phenylalanyl-D-tryptophyl-L-lysyl-L-threonyl-N-[2-hydroxy-1-(hydroxymethyl)propyl]-,cyclic(2→7)-disulfide; [R—(R*,R*)]]
patients with normalization of IGF-1 levels (IGF-1): up to 60% | mean percent of the drug bound [1]: 41.2% | total body clearance [1]: 18 L/h | mean peak concentration ([1]; 100 mcg dose, subcutaneous): 2.8 ng/mL | time to mean peak concentration ([1]; 100 mcg dose, subcutaneous): 0.7 h | time to decrease of GH levels (GH): within two hours
